Assay results from US9376396B2, “Acylaminocycloalkyl compounds suitable for treating disorders that respond to modulation of dopamine D3 receptor” (AbbVie Deutschland GmbH & Co. KG, priority 2012, dated 2016).

Experiments:
[1] = molecular target: T1, human dopamine D3 receptors (Homo sapiens, UniProt P35462); experiment: Receptor binding study, dopamine D3 receptor ([125I]-iodosulpride displacement); settings: membranes of HEK-293 cells, 0.1 nM [125I]-iodosulpride, 25° C., 60 minutes
T1 construct: expressed in transfected cells; host or cells: HEK-293
T1 sequence (P35462 whole entry): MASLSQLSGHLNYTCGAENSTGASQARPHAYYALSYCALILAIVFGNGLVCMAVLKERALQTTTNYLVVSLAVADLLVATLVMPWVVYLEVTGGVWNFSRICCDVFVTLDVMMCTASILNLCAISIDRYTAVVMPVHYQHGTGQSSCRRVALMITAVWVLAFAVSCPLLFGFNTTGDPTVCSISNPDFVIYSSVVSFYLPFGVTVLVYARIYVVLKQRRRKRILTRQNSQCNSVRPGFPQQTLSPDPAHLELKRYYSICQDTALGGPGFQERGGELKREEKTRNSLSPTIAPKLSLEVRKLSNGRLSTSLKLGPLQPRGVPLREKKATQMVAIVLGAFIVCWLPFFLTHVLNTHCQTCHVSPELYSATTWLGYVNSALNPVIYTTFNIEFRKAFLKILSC
Method: (§1) The substance to be tested was either dissolved in methanol/Chremophor® (BASF SE) or in dimethyl sulfoxide and then diluted with water to the desired concentration.
(§2) Each assay mixture was run in triplicate. • The incubation buffer contained 50 mM tris, 120 mM NaCl, 5 mM KCl, 2 mM CaCl2, 2 mM MgCl2 and 0.1% bovine serum albumin, 10 μM quinolone and 0.1% ascorbic acid (prepared fresh daily). […] Each assay mixture was run in triplicate. • The incubation buffer contained 50 mM tris, 120 mM NaCl, 5 mM KCl, 2 mM CaCl2, 2 mM MgCl2 and 0.1% bovine serum albumin. The buffer was adjusted to pH 7.4 with HCl. c) Measurement and Analysis: • After having been incubated at 25° C. for 60 minutes, the assay mixtures were filtered through a Whatman GF/B glass fiber filter under vacuum using a cell collecting device. The filters were transferred to scintillation viols using a filter transfer system. After 4 ml of Ultima Gold® (Packard) have been added, the samples were shaken for one hour and the radioactivity was then counted in a Beta-Counter (Packard, Tricarb 2000 or 2200CA).

[2] = molecular target: T2, human dopamine D2L receptors (long isoform) (Homo sapiens, UniProt P14416); experiment: Receptor binding study, dopamine D2L receptor ([125I]iodospiperone displacement), selectivity vs D3; settings: selectivity ratio, HEK-293 membranes
T2 construct: expressed in transfected cells; host or cells: HEK-293
T2 sequence (P14416 whole entry, canonical isoform): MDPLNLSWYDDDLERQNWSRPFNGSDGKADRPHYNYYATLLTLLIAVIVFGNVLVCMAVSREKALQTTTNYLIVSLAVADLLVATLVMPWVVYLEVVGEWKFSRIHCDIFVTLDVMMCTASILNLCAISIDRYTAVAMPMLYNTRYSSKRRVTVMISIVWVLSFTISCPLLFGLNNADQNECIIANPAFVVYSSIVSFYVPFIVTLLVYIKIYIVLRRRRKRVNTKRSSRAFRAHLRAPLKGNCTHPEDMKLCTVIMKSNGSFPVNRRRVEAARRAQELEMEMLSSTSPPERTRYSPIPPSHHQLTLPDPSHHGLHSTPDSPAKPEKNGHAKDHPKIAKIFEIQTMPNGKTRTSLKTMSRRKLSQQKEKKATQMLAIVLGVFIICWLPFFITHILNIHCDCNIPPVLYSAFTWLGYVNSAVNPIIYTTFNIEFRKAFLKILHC
Method: as §1, §2

hERG cardiac K+ channel = molecular target: T3, hERG cardiac K+ channel (Homo sapiens, UniProt Q12809); experiment: Blocking the hERG channel ([3H]dofetilide displacement); format: binding; settings: membrane homogenate from HEK 293 cells expressing hERG
T3 construct: expressed in transfected cells; host or cells: HEK-293
T3 sequence (Q12809 whole entry): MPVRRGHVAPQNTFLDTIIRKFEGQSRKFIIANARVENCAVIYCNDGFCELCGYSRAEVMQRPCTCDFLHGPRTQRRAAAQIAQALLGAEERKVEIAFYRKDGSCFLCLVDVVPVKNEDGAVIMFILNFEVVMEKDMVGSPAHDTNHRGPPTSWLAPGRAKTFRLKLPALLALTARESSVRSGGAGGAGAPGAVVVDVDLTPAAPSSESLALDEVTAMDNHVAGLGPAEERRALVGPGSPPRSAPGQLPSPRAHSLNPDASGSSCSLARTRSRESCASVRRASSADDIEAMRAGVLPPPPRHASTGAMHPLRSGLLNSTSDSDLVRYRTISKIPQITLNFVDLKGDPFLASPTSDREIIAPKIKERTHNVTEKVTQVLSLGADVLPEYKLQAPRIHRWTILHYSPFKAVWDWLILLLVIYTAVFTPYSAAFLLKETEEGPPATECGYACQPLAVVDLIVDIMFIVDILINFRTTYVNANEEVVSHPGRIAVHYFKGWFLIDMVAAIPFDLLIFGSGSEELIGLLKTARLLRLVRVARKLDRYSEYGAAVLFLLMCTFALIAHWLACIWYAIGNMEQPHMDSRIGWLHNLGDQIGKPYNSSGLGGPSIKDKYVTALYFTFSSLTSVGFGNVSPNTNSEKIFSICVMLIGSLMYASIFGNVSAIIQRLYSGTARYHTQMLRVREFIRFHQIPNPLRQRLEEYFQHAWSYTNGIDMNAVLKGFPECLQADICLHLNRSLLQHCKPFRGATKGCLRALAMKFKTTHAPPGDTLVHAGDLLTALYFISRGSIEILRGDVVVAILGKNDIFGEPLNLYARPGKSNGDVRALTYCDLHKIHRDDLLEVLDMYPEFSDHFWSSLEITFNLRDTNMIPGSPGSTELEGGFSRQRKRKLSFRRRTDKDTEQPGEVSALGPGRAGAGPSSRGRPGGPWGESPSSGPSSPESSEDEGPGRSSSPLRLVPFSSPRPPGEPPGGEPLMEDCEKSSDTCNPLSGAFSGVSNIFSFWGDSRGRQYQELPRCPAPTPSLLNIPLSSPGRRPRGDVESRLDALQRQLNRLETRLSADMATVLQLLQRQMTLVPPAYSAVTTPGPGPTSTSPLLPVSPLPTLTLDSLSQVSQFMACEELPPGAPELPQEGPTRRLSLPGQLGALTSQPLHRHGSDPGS
Method: The binding affinity of test drugs for the hERG cardiac K^+ channel was determined by their ability to displace tritiated dofetilide (a class III antiarrhythmic drug and potent hERG blocker) in membrane homogenates from HEK-293 cells heterogeneously expressing the hERG channel. The assay was performed as previously described G. J. Diaz et al., Journal of Pharmacological and Toxicological Methods, 50 (2004), 187-199). For this, drug dilutions were prepared from 10 mM DMSO stocks and the following were added to a 96-well polystyrene plate (Perkin-Elmer Optiplate): 20 μl of assay binding buffer (for total bounds), or 1 μM astemizole (for non-specific bounds), or test drug, 50 μl of [^3H]dofetilide (20 nM, ˜80 Ci/mmol specific activity), and 130 μl of membrane homogenate from HEK 293 cells stably transfected with hERG K^+ channels (final protein concentration of 30 μg per well). The plates were incubated at ambient temperature for 45 min, aspirated onto GF/B filter plates (Perkin-Elmer), and washed with 2 ml of cold wash buffer. After allowing the plates to dry, 50 μl of scintillant (Perkin-Elmer MicroScint 20) were added to each well and the radioactivity was counted in a Perkin-Elmer Topcount NXT scintillation counter. IC50 determinations were calculated from competition curves using 6 drug concentrations, half-log apart, starting at a high concentration of 100 μM (final assay DMSO concentration=1%) using a four-parameter logistic equation. The results are given as IC50 value.

[3] = Determination of the microsomal half-life / microsomal clearance, human; format: in vitro ADME; settings: human liver microsomes, 0.5 μM test substance, 0.25 mg microsomal protein/ml, NADPH, 37° C.
Method: (§3) The metabolic stability of the compounds of the invention was determined in the following assay.
(§4) The test substances were incubated in a concentration of 0.5 μM as follows:
(§5) 0.5 μM test substance are preincubated together with liver microsomes from different species (from rat, human or other species) (0.25 mg of microsomal protein/ml) in 0.05 M potassium phosphate buffer of pH 7.4 in microtiter plates at 37° C. for 5 min. The reaction is started by adding NADPH (1 mg/mL). After 0, 5, 10, 15, 20 and 30 min, 50 μl aliquots are removed, and the reaction is immediately stopped and cooled with the same volume of acetonitrile. The samples are frozen until analyzed. The remaining concentration of undegraded test substance is determined by MSMS. The half-life (T½) is determined from the gradient of the signal of test substance/unit time plot, it being possible to calculate the half-life of the test substance, assuming first order kinetics, from the decrease in the concentration of the compound with time. The microsomal clearance (mCl) is calculated from mCl=ln 2/T½/(content of microsomal protein in mg/ml)×1000 [ml/min/mg] (modified from references: Di, The Society for Biomoleculur Screening, 2003, 453-462; Obach, DMD, 1999 vol 27. N 11, 1350-1359).

[4] = Determination of the microsomal half-life / microsomal clearance, rat; format: in vitro ADME; settings: rat liver microsomes, 0.5 μM test substance, 0.25 mg microsomal protein/ml, NADPH, 37° C.
Method: as §3, §4, §5

Ki [1] [µM]	D2/D3 (Ki (D2L)/Ki (D3)) [2]	Human mCl [3]	Rat mCl [4]	Structure (SMILES)	IC50 (hERG cardiac K+ channel) [µM]
< 0.01	+++ (+++>50)	+ (+: 20-120 μl min^−1 mg^−1)	+ (+: 20-120 μl min^−1 mg^−1)	COCCc1cc(N2CCN(CC[C@H]3CC[C@H](NC=O)CC3)CC2)nc(C(C)(C)C)n1 [Compound 11, trans-N-[4-(2-{4-[2-tert-Butyl-6-(2-methoxy-ethyl)-pyrimidin-4-yl]-piperazin-1-yl}-ethyl)-cyclohexyl]-formamide]	> 10
< 0.01	+++ (+++>50)	+ (+: 20-120 μl min^−1 mg^−1)	+ (+: 20-120 μl min^−1 mg^−1)	CC(=O)N[C@H]1CC[C@H](CCN2CCN(c3cc(CCO)nc(C(C)(C)C)n3)CC2)CC1 [Compound 13, trans-N-[4-(2-{4-[2-tert-Butyl-6-(2-hydroxy-ethyl)-pyrimidin-4-yl]-piperazin-1-yl}-ethyl)-cyclohexyl]-acetamide]	> 10
